Reference: US10478157B2, “Methods for drug delivery” (Presage Biosciences, Inc., priority 2011, dated 2019)

Test system: mouse xenograft of Human Lymphoma Ramos cell line
Assay: Vincristine delivered through a microdialysis probe into a solid tumor; Cleaved Caspase 3 / DAPI staining
Type: in vivo
Conditions: intratumoral delivery by microdialysis probe; Cleaved Caspase 3 Fluorophore 555 for cell death, DAPI nuclear stain; FIG. 13
Description: FIGS. 13a and 13b show drug delivered through microdialysis probe induces spatially restricted drug specific tumor cell death embodying principles of the present invention.
Little or no evidence of tissue disruption due to insertion was observed. The membrane maintained its integrity through insertion and tissue processing, including microtome sectioning. The solid tumor is a mouse xenograft of Human Lymphoma Ramos cell line. The biomarkers are DAPI for nuclear stain and Cleaved Caspase 3 Fluorophore 555 for cell death in response to Vincristine as delivery agent.

CC[C@]1(O)C[C@H]2CN(CCc3c([nH]c4ccccc34)[C@@](C(=O)OC)(c3cc4c(cc3OC)N(C=O)[C@H]3[C@@](O)(C(=O)OC)[C@H](OC(C)=O)[C@]5(CC)C=CCN6CC[C@]43[C@@H]65)C2)C1 [Vincristine]
triggered cellular response (Cleaved Caspase 3 biomarker for cell death) around the delivery axis: clear manifestation of triggered cellular response
